Measurements published in US9334278B2, “Pyrrolo[2,3-B]pyrazines as SYK inhibitors” (Hoffmann-La Roche Inc., priority 2012, dated 2016).
pIC50: −log10 of the molar value.

Tests used:
[1] = test system: Human B cell lymphoma cell line Ramos; assay: Ramos Calcium Influx FLIPR Assay; assay type: cell-based; settings: Ramos cells, anti-human IgM 10 μg/mL stimulation, read-out: RAMOS_IC50
Description: Ramos Calcium Influx FLIPR Assay
Human B cell lymphoma cell line Ramos was cultivated in RPMI-1640 with 10% Fetal Bovine Serum (Invitrogen). Cells were seeded into assay plate and loaded with calcium dye by adding 30 μl of dye loading buffer according to manufacturer's instruction (Beckton Dickinson Calcium Kit, Cat#80500). The cells were then treated with serial diluted compounds for 30 min before stimulation. Baseline fluorescence was recorded for about 20 seconds followed by stimulation with mouse anti-human IgM (10 μg/mL, clone M2E6, Antibody Solutions Inc.) for Ramos cells, and record of the maximal fluorescent counts in each well. Maximal counts divided by baseline counts, defined as fold change from baseline for each well, was used for IC50 calculation.

[2] = target: recombinant human SYK360-635 (Spleen Tyrosine Kinase) (Homo sapiens (Human), UniProt P43405); assay: SYK kinase assay (33P filtration, IC50 of SYK inhibition); settings: read-out: ENZYME_FILTRATION_IC50; SYK 0.5 nM, ATP 20 μM, 33P filtration
Description: Determination of IC50 of Spleen Tyrosine Kinase (SYK) inhibition:
SYK kinase assay is a standard kinase assay adapted to a 96 well plate format. This assay is performed in 96-well format for IC50 determination with 8 samples which represented 10 half log dilutions and a 40 μL reaction volume. The assay measures the incorporation of radiolabeled ^33P γATP into an N-terminally biotinylated peptide substrate, derived from naturally occurring phosphoacceptor consensus sequence (Biotin-11aa DY*E). Phosphorylated products were detected upon termination of reactions with EDTA and the addition of Streptavidin coated beads.
BSA: Bovine Serum Albumin Fraction V, fatty acid free (Roche Diagnostics GmbH, Cat. No. 9100221) diluted to a final concentration of 0.1%
Assay Dilution Buffer (ADB): 50 mM HEPES, 0.1 mM EGTA, 0.1 mM Na Vanadate, 0.1 mM (3-glycerophosphate, 10 mM MgCl2, 1 mM DTT, 0.1% BSA, pH 7.5
Bead wash buffer: 10 g/L PBS (Phosphate buffered saline) with 2M NaCl+1% phosphoric acid.
DMSO and the mixture was incubated for 10 min at RT.
The kinase reaction was initiated by the addition of 10 μL 4× substrate cocktail containing the DYE peptide substrate [0 or 5 μM], ATP [20 μM] and ^33PγATP [2 μCi/r×n]. After incubation at 30° C. for 15 min, the reaction was terminated by the transfer of 25 μL of the reaction sample to a 96 well 0.65 μm Millipore MADVNOB membrane/plate containing 200 μL 5 mM EDTA and 20% Streptavidine coated beads in PBS.
The unbound radionucleotides were washed under vacuum with 3×250 μL 2M NaCl; 2×250 μL 2M NaCl+1% phosphoric acid; 1×250 μL H2O. After the last wash membrane/plates were transferred to an adaptor plate, heat dried for 15 min at 60° C., and 50 μL scintillation cocktail was added to each well and 4 h later the amount of radioactivity was counted in a top counter.

[3] = test system: B cell CD69 up-regulation in human whole blood; assay: B Cell CD69 Up-Regulation Assay in Human Whole Blood; assay type: cell-based; settings: anti-human IgM 50 μg/mL for 20 h, CD69hi CD20+ B cells
Description: B Cell CD69 Up-Regulation Assay in Human Whole Blood
Human Blood was collected from healthy volunteers into Vacutainers (BD Biosciences, San Jose, Calif.) containing sodium heparin. Test compound was suspended in DMSO and nine half-log serial dilutions were made. The concentration of […] in the assay was 0.5%. 100 μL whole blood was pre-incubated with compound for 30 min and then stimulated with goat F(ab′)2 anti-human IgM (50 μg/mL, Southern Biotech) for 20 h. At the end of the 20 hour incubation, samples were incubated with fluorochrome-conjugated antibodies, PE mouse anti-human CD20 and APC Mouse anti-human CD69 (BD Biosciences), for 30 minutes. Samples were then lysed with Lyse solution (BD) and washed with PBS containing 2% fetal bovine serum (FBS). Fluorescent signals were acquired on flow cytometer LSR II (BD) and data were analyzed by Flow Jo. The percentage of activated (CD69hi) B-cell lymphocytes (CD20+) were determined using un-stimulated (negative control) and stimulated (positive control) wells as reference guidelines. The percentage inhibition was calculated and an IC50 curve was constructed using GraphPad Prism software with sigmoidal curve fitting.

## Cc1cc(Nc2cnc3[nH]cc(C(=O)NC(C)(C)C)c3n2)on1 [Compound I-22, N-tert-butyl-2-(3-methylisoxazol-5-ylamino)-5H-pyrrolo[2,3-b]pyrazine-7-carboxamide]
[1]
  pIC50: 7.10
[2]
  pIC50: 7.60
[3]
  pIC50: 5.87

## CC(C)(C)NC(=O)c1c[nH]c2ncc(Nc3ccc(S(C)(=O)=O)nc3)nc12 [Compound I-23, N-tert-butyl-2-(6-(methylsulfonyl)pyridin-3-ylamino)-5H-pyrrolo[2,3-b]pyrazine-7-carboxamide]
[1]
  pIC50: 5.44
[2]
  pIC50: 6.93
[3]
  pIC50: 6.20

## CC(O)c1cccc(Nc2cnc3[nH]cc(C(=O)NC(C)(C)C)c3n2)c1 (stereo not drawn) [Compound I-24, N-tert-butyl-2-(3-(1-hydroxyethyl)phenylamino)-5H-pyrrolo[2,3-b]pyrazine-7-carboxamide]
[1]
  pIC50: 7.03
[2]
  pIC50: 8.23
[3]
  pIC50: 6.38

## COc1ncc(Nc2cnc3[nH]cc(C(=O)NC(C)(C)C)c3n2)cn1 [Compound I-25, N-tert-butyl-2-(2-methoxypyrimidin-5-ylamino)-5H-pyrrolo[2,3-b]pyrazine-7-carboxamide]
[1]
  pIC50: 6.67
[2]
  pIC50: 7.15
[3]
  pIC50: 6.36

## CC(N)c1cccc(Nc2cnc3[nH]cc(C(=O)NC(C)(C)C)c3n2)c1 (stereo not drawn) [Compound I-27, 2-(3-(1-aminoethyl)phenylamino)-N-tert-butyl-5H-pyrrolo[2,3-b]pyrazine-7-carboxamide]
[1]
  pIC50: 6.65
[2]
  pIC50: 7.73
[3]
  pIC50: 6.20

## Cc1nn(C)cc1Nc1cnc2[nH]cc(C(=O)NC(C)(C)C)c2n1 [Compound I-30, N-tert-butyl-2-(1,3-dimethyl-1H-pyrazol-4-ylamino)-5H-pyrrolo[2,3-b]pyrazine-7-carboxamide]
[1]
  pIC50: 6.56
[2]
  pIC50: 7.01
[3]
  pIC50: 6.57

## Cn1cc2c(n1)CCCN2c1cnc2[nH]cc(C(=O)NC(C)(C)C)c2n1 [Compound I-32, N-tert-butyl-2-(2-methyl-6,7-dihydro-2H-pyrazolo[4,3-b]pyridin-4(5H)-yl)-5H-pyrrolo[2,3-b]pyrazine-7-carboxamide]
[1]
  pIC50: 6.56
[2]
  pIC50: 7.36
[3]
  pIC50: 5.94

## Cn1ncc2c1CCCN2c1cnc2[nH]cc(C(=O)NC(C)(C)C)c2n1 [Compound I-33, N-tert-butyl-2-(1-methyl-6,7-dihydro-1H-pyrazolo[4,3-b]pyridin-4(5H)-yl)-5H-pyrrolo[2,3-b]pyrazine-7-carboxamide]
[1]
  pIC50: 6.10
[2]
  pIC50: 6.78
[3]
  pIC50: 5.84

## Cc1cc(Nc2nc3c(C(=O)NC(C)(C)C)c[nH]c3nc2C)sn1 [Compound I-36, 3-Methyl-2-(3-methyl-isothiazol-5-ylamino)-5H-pyrrolo[2,3-b]pyrazine-7-carboxylic acid tert-butylamide]
[1]
  pIC50: 5.90
[2]
  pIC50: 6.60
[3]
  pIC50: 5.08
